The test system of one assay is STAT6 bla-RA1 cells. Description: STAT6 assay (IL-4 stimulated reporter cells). In kind it is cell-based. To be noted: for pEC50: interleukin 4 10 ng/mL; for STAT5/STAT6 EC50 ratio (selectivity for STAT6 over STAT5): selectivity for STAT6 over STAT5, from EC50. Here is the method:
Twenty-five μL of a STAT6 bla-RA1 (Invitrogen # K1243) cell suspension was seeded with a density of 30-40,000 cells/well in 384-well Black View-plates (PerkinElmer #6007460) with clear bottom in assay medium (Opti-MEM (Invitrogen #11058-021)+0.5% heat inactivated fetal bovine Serum (Invitrogen #10082-147)+1% non-essential amino acids (Invitrogen #11140-050)+1% sodium pyruvate (Invitrogen #11360-070)+1% penicillin/streptomycin (Invitrogen #15140-122)); containing 550 ng/mL of CD40 ligand (Invitrogen # PHP0025). The cell plates were incubated overnight in a humidified 37° C. air/CO2 (95%/5%) incubator. The following day, 125 nL of solutions of test compounds and reference compounds were transferred to cell plates using the Labcyte Echo 550 liquid handler. The plates were then incubated for 1 h in a humidified 37° C. air/CO2 (95%/5%) incubator. Hereafter recombinant human interleukin 4 (Invitrogen # PHC0045) were added to the plates also using the Labcyte Echo 550 to a final concentration of 10 ng/mL. The cells were then incubated for 4½-5 h in a humidified 37° C. air/CO2 (95%/5%) incubator. 8 μL of LiveBLAzer substrate mixture (Invitrogen # K1095) were then added to the assay plates, which were incubated overnight at RT. Fluorescence was then measured: Excitation: 405 nm; Emission: 460 nm (green channel), Emission: 535 nm (blue channel). Background was subtracted in both emission channels and the ratio 460/535 nm was calculated for each well.

The next assay concerns the target JAK2 (Homo sapiens (Human), UniProt O60674). Kind of assay: JAK2 kinase assay (HTRF). In kind it is biochemical. As to conditions: ATP at Km (4 μM). As for the experimental part: (§1) Human baculovirus-expressed Janus kinase (JAK) 1, 2, 3 and tyrosin kinase (TYK) 2 were purchased from Carna Biosciences, Inc (#08-144, -045, -046, -147 resp.). All four purified enzymes contain only the catalytic domain. JAK1 (aa 850-1154) and TYK2 (aa 871-1187) are expressed with an N-terminally fused GST-tag, and JAK2 and JAK3 with an N-terminally fused His-tag. Inhibition of phosphorylation of a synthetic peptide was measured in an HTRF-based assay (CisBio #62TKOPEC). First, 75 nL of test compound solution (100% DMSO) was added to a white shallow 384-well plate (NUNC #264706) using a Labcyte ECHO 550 liquid handler. Thereafter, 1 μL of compound dilution buffer (50 mM HEPES, 0.05% bovine serum albumin) and 2 μL of TK solution (TK substrate-biotin in kinase buffer [1× enzymatic buffer from HTRFKinEASE TK kit, 1 mM DTT]) was added. Then, 5 μL kinase-ATP mix (prepared in kinase buffer) was added to the wells and the plates were incubated at RT for 20 (JAK2, 3 and TYK2) to 40 (JAK1) min. For all four kinases a concentration of ATP that corresponded to the Km for ATP was used. The final concentrations of buffers, substrate, kinase and ATP were: JAK1: 50 mM Hepes buffer pH 7.0, 0.01% BSA, 10 mM MgCl2, 1 mM DTT, 7 μM ATP, 50 nM SEB, 1 μM TK Substrate-Biotin and 5 ng/well JAK1; JAK2: 50 mM Hepes buffer pH 7.0, 0.01% BSA, 5 mM MgCl2, 1 mM DTT, 4 μM ATP, 1 μM TK Substrate-Biotin and 0.1 ng/well JAK2; JAK3: 50 mM Hepes buffer pH 7.0, 0.01% BSA, 5 mM MgCl2, 1 mM DTT, 2 μM ATP, 1 μM TK Substrate-Biotin and 0.3 ng/well JAK3; TYK2: 50 mM Hepes buffer pH 7.0, 0.01% BSA, 5 mM MgCl2, 1 mM DTT, 13 μM ATP, 50 nM SEB, 1 μM TK Substrate-Biotin and 0.8 ng/well TYK2. Thereafter, the kinase reaction was stopped by adding 4 μL detection mix (final concentrations: 50 mM Hepes buffer pH 7.0, 0.01% BSA, 0.8 M KF, 20 mM EDTA, 42 nM Streptavidin-XL665 and 1:400 STK Ab Cryptate) and the plates were incubated overnight in the dark. A PerkinElmer Envision reader was used to quantify the HTRF signal using the following filters; 320 nm excitation filter, 665 nm emission filter and a 615 nm 2nd emission filter. A ratio ((665/615)×10^4) was calculated for each well.

In another assay the target is JAK1 (Homo sapiens (Human), UniProt P23458). Description: JAK1 kinase assay (HTRF). The format is biochemical. As to conditions: for JAK2/JAK1 ratio / JAK3/JAK1 ratio: ratio of the respective EC50. Here is the method: as §1
For a further assay, the target named is JAK3 (Homo sapiens (Human), UniProt P52333). Description: JAK3 kinase assay (HTRF). In kind it is biochemical. Here is the method: as §1
(TR-FRET usually uses a lanthanide donor and a delayed reading to cut background.)

In the next assay the test system is STAT5 irfl-bla TF1 cells. Kind of assay: STAT5 assay (EPO stimulated reporter cells). The format is cell-based. To be noted: Homo sapiens, TF-1; erythropoietin (EPO) 10 ng/mL. As for the experimental part: Twenty-five μL of a STAT5 irfl-bla TF1 (Invitrogen # K1219) cell suspension was seeded with a density of about 10,000 cells/well in 384-well Black View-plates (PerkinElmer #6007460) with clear bottom in assay medium (Opti-MEM (Invitrogen #11058-021)+0.5% heat inactivated fetal bovine Serum (Invitrogen #10082-147)+1% non-essential amino acids (Invitrogen #11140-050)+1% sodium pyruvate (Invitrogen #11360-070)+1% penicillin/streptomycin (Invitrogen #15140-122)). The cell plates were incubated overnight in a humidified 37° C. air/CO2 (95%/5%) incubator. The following day, 125 nL of solutions of test compounds and reference compounds were transferred to cell plates using the Labcyte Echo 550 liquid handler. The plates were then incubated for 1 h in a humidified 37° C. air/CO2 (95%/5%) incubator. Hereafter recombinant human erythropoietin (EPO) (Invitrogen # PHC9634) was added to the plates also using the Labcyte Echo 550 to a final concentration of 10 ng/mL. The cells were then incubated for 4½-5 h in a humidified 37° C. air/CO2 (95%/5%) incubator. 8 μL of LiveBLAzer substrate mixture (Invitrogen # K1095) were then added to the assay plates, which were then incubated overnight at RT. Fluorescence was then measured: Excitation: 405 nm; Emission: 460 nm (green channel), Emission: 535 nm (blue channel). Background was subtracted in both emission channels and the ratio 460/535 nm was calculated for each well.

The next assay deals with TYK2 (Homo sapiens (Human), UniProt P29597). Kind of assay: TYK2 kinase assay (HTRF). The format is biochemical. Here is the method:
as §1

pEC50: −log10 of the molar value. Like-named read-outs stand apart in the source and are kept apart here.

Sequence of TYK2 (P29597 871-1187): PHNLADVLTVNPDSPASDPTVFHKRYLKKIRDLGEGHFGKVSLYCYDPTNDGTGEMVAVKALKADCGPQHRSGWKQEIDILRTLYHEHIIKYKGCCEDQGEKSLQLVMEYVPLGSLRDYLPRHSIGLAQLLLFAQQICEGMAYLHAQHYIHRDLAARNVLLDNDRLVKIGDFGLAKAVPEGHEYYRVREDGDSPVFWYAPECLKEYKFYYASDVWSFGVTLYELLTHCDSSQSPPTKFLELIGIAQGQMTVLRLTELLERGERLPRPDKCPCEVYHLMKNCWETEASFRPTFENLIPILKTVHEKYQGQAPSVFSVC
Sequence of JAK2 (O60674 849-1124): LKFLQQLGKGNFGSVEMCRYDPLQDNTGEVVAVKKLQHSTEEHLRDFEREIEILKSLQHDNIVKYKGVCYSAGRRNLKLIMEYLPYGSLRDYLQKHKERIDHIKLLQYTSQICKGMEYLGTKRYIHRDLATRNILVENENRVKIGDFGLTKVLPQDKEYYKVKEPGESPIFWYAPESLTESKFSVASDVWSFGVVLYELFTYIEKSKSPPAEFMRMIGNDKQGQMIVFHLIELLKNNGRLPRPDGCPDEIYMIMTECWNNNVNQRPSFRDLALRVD
Sequence of JAK3 (P52333 822-1111): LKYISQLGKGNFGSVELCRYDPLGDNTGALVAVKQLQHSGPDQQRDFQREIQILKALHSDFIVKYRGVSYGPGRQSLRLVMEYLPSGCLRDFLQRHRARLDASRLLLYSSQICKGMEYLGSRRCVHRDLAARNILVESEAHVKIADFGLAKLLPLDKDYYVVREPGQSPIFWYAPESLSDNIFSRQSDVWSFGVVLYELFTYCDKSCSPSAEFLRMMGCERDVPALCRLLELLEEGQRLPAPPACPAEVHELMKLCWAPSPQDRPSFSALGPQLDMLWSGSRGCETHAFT
Sequence of JAK1 (P23458 850-1154): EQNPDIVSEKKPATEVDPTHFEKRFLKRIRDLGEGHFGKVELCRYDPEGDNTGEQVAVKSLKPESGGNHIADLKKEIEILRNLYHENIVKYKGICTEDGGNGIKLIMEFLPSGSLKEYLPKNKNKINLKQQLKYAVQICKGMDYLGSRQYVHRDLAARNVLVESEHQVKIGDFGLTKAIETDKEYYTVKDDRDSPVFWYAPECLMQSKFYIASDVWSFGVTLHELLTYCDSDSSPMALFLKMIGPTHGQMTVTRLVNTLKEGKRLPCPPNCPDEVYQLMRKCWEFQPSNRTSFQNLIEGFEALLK

Consider `[2H]C([2H])([2H])C([2H])(O)c1nc2cnc(NC)cc2n1[C@H]1CC[C@H](CC#N)CC1` (stereo partly drawn) [Example 5, trans-2-[4-[2-[1,2,2,2-Tetradeuterio-1-hydroxyethyl]-6-(methylamino)imidazo[4,5-c]pyridin-1-yl]cyclohexyl]acetonitrile], for which the negative-log EC50 (pEC50) (in general, the EC50 on a negative log10 scale, so that one unit is a factor of ten) with STAT6 bla-RA1 cells is 6.57; on JAK2, 6.52; on JAK1, 8.08; at JAK3, 5.49; with STAT5 irfl-bla TF1 cells it was 5.03; at TYK2, 6.99. In addition, in the assay with STAT6 bla-RA1 cells, the “STAT5/STAT6 EC50 ratio (selectivity for STAT6 over STAT5)” value is 34. Further, the JAK2/JAK1 ratio at JAK1 is given as 36. The JAK3/JAK1 ratio on JAK1 was 380.
On to `CNc1cc2c(cn1)nc([C@@H](C)O)n2[C@H]1CC[C@@H](CC#N)CC1` [Example 7, cis-2-[4-[2-[(1R)-1-Hydroxyethyl]-6-(methylamino)imidazo[4,5-c]pyridin-1-yl]cyclohexyl]acetonitrile], for which the pEC50 is 5.46 with STAT6 bla-RA1 cells; 6.01 at JAK2; 6.89 on JAK1 (ATP at Km (7 μM)); 6.00 on JAK3 (ATP at Km (2 μM)); less than 4.30 in the assay with STAT5 irfl-bla TF1 cells; 6.35 on TYK2 (ATP at Km (13 μM)). Besides, in the assay on STAT6 bla-RA1 cells, the “STAT5/STAT6 EC50 ratio (selectivity for STAT6 over STAT5)” value is greater than 14. In addition, on JAK1, the JAK2/JAK1 ratio is given as 7.6. For the same compound, the JAK3/JAK1 ratio at JAK1 is recorded as 7.8.
In the case of `[2H]C([2H])([2H])Nc1cc2c(cn1)nc([C@@H](C)O)n2[C@H]1CC[C@H](CC#N)CC1` [Example 4, trans-2-[4-[2-[(1R)-1-Hydroxyethyl]-6-(trideuteriomethylamino)imidazo[4,5-c]pyridin-1-yl]cyclohexyl]acetonitrile], the pEC50 is 6.85 in the assay on STAT6 bla-RA1 cells; 6.82 at JAK2; 8.46 at JAK1; 5.64 on JAK3; 5.15 in the assay on STAT5 irfl-bla TF1 cells; 7.37 at TYK2. In addition, in the assay with STAT6 bla-RA1 cells, the “STAT5/STAT6 EC50 ratio (selectivity for STAT6 over STAT5)” value worked out at 50. Also, at JAK1, the JAK2/JAK1 ratio turned out to be 44. Moreover, at JAK1, the JAK3/JAK1 ratio is recorded as 668.
Consider `CNc1cc2c(cn1)nc(C(C)O)n2[C@H]1CC[C@@H](CC#N)CC1` (stereo partly drawn) [Example 6, cis-2-[4-[2-[1-Hydroxyethyl]-6-(methylamino)imidazo[4,5-c]pyridin-1-yl]cyclohexyl]acetonitrile], for which the pEC50 with STAT6 bla-RA1 cells is 5.07; on JAK2 it was 5.58; at JAK1 (ATP at Km (7 μM)) it was 6.29; on JAK3 (ATP at Km (2 μM)), 5.54; with STAT5 irfl-bla TF1 cells, less than 4.30; at TYK2 (ATP at Km (13 μM)), 5.95. The “STAT5/STAT6 EC50 ratio (selectivity for STAT6 over STAT5)” value in the assay on STAT6 bla-RA1 cells was greater than 5.8. In addition, at JAK1, the JAK2/JAK1 ratio amounted to 5.2. Besides, the JAK3/JAK1 ratio on JAK1 came to 5.6.
For the compound `CNc1cc2c(cn1)nc([C@H](C)O)n2[C@H]1CC[C@H](CC#N)CC1` [Example 2, trans-2-[4-[2-[(1S)-1-Hydroxyethyl]-6-(methylamino)imidazo[4,5-c]pyridin-1-yl]cyclo-hexyl]acetonitrile], the pEC50 was 5.94 with STAT6 bla-RA1 cells; 5.95 on JAK2; 7.35 on JAK1; 5.01 at JAK3; less than 4.37 with STAT5 irfl-bla TF1 cells; 6.33 on TYK2. Besides, the “STAT5/STAT6 EC50 ratio (selectivity for STAT6 over STAT5)” value in the assay on STAT6 bla-RA1 cells is greater than 37. Also, the JAK2/JAK1 ratio at JAK1 was 25. Besides, the JAK3/JAK1 ratio at JAK1 was 221.
As for `CNc1cc2c(cn1)nc(C(C)O)n2[C@H]1CC[C@H](CC#N)CC1` (stereo partly drawn) [Example 1, trans-2-[4-[2-[1-Hydroxyethyl]-6-(methylamino)imidazo[4,5-c]pyridin-1-yl]cyclohexyl]acetonitrile], the pEC50 was 6.63 in the assay on STAT6 bla-RA1 cells; 6.28 on JAK2; 7.97 on JAK1 (ATP at Km (7 μM)); 5.28 on JAK3 (ATP at Km (2 μM)); 4.84 in the assay on STAT5 irfl-bla TF1 cells; 6.95 on TYK2 (ATP at Km (13 μM)). Also, the “STAT5/STAT6 EC50 ratio (selectivity for STAT6 over STAT5)” value in the assay with STAT6 bla-RA1 cells is 62. The JAK2/JAK1 ratio on JAK1 came out at 49. Besides, the JAK3/JAK1 ratio on JAK1 is recorded as 487.

Values taken from patent US10703751B2, “Amino-imidazopyridine derivatives as Janus kinase inhibitors and pharmaceutical use thereof” (LEO Pharma A/S, priority 2017, dated 2020).
